Data published in patent US12312359B2 (Vitae Pharmaceuticals, LLC, priority 2016, dated 2025).

How the values were obtained:
[1] = target: T1, biotinylated wild-type menin and MLL-AF9 fusion protein (menin/MLL binding) (Homo sapiens, UniProt O00255); assay: Assay 1: menin/MLL binding AlphaLISA assay, wild-type menin; conditions: Table 30; column head does not say wild-type or mutated menin
T1 construct: made in house; host or cells: menin: E. coli; MLL-AF9-FLAG: HEK293 cells, used as cleared lysate
T1 sequence (O00255 1-610): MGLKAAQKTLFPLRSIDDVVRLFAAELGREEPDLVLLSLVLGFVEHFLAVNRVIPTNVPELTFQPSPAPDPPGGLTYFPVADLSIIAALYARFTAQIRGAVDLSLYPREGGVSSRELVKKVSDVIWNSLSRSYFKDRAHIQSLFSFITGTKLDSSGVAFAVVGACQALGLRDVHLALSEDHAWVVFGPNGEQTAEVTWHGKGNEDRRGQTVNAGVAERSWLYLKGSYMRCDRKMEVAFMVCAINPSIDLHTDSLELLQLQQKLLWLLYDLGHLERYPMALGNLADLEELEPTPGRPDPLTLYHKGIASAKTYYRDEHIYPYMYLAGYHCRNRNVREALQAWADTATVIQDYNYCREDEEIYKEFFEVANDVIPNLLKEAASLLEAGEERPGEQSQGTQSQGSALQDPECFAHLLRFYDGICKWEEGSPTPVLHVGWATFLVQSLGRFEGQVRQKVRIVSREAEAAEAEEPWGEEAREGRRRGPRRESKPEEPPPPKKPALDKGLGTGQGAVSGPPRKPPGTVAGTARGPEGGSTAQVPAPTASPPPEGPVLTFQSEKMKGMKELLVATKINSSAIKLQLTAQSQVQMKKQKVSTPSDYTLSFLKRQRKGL
In short: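 Compound was preincubated 30 min at room temperature with biotinylated menin (5 nM) and MLL-AF9-FLAG lysate from HEK293 cells, pH 7.4 buffer with 5% DMSO and DTT. Bead-based Alpha signal after 60 min with streptavidin donor and anti-FLAG acceptor beads; four-parameter logistic fit gave IC50.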

[2] = test system: human acute monocytic leukemia cell line MV-4-11; assay: Assay 2: cell proliferation assay (ATP quantitation, CellTiter-Glo), MV-4-11; type: cell-based; conditions: MV-4-11 cells
In short: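 MV-4-11 cells, 1.67×10^4 per well in medium with 10% FBS, were exposed to compound for 72 h at 37° C., 5% CO2; HL-60 cells served as toxicity control. Proliferation read as ATP content by CellTiter-Glo luminescence.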

Row | IC50 [1] [nM] | EC50 ([2]; Homo sapiens, MV4-11, 72 h) [nM] | EC50 ([2]; 72 h) [nM] | SMILES
1 | < 100 | < 100 | – | O=c1[nH]c2ccc(CN3CCC4(CCN(c5ncncc5Oc5ccc(F)cc5-c5cccnc5C5CC5)C4)C3)cc2[nH]1 (stereo not drawn) [Example 180, 5-((7-(5-(2-(2-cyclopropylpyridin-3-yl)-4-fluorophenoxy)pyrimidin-4-yl)-2,7-diazaspiro[4.4]nonan-2-yl)methyl)-1,3-dihydro-2H-benzo[d]imidazol-2-one]
2 | < 100 | 100 to 1000 | – | CC(C)c1ncncc1-c1cc(F)ccc1Oc1cncnc1N1CC2(CC(N(C)Cc3ccc(C#N)cc3)CO2)C1 (stereo not drawn) [Example 181, 4-(((2-(5-(4-fluoro-2-(4-isopropylpyrimidin-5-yl)phenoxy)pyrimidin-4-yl)-5-oxa-2-azaspiro[3.4]octan-7-yl)(methyl)amino)methyl)benzonitrile]
3 | < 100 | 100 to 1000 | – | CC1(C)C(=O)Nc2cc(CN3CCC4(CCN(c5ncncc5Oc5ccc(F)cc5OCC(F)(F)F)C4)C3)ccc21 (stereo not drawn) [Example 182, 6-((7-(5-(4-fluoro-2-(2,2,2-trifluoroethoxy)phenoxy)pyrimidin-4-yl)-2,7-diazaspiro[4.4]nonan-2-yl)methyl)-3,3-dimethylindolin-2-one]
4 | < 100 | < 100 | – | CC(C)N(C)C(=O)c1cc(F)ccc1Oc1cncnc1N1CCC2(CCN(Cc3ccc4[nH]c(=O)[nH]c4c3)C2)C1 (stereo not drawn) [Example 183, 5-fluoro-N-isopropyl-N-methyl-2-((4-(7-((2-oxo-2,3-dihydro-1H-benzo[d]imidazol-5-yl)methyl)-2,7-diazaspiro[4.4]nonan-2-yl)pyrimidin-5-yl)oxy)benzamide]
5 | < 100 | 100 to 1000 | – | CC(C)c1ncncc1-c1cc(F)ccc1Oc1cncnc1N1CC2(CC(NCC3CCCCC3)CO2)C1 (stereo not drawn) [Example 184, N-(cyclohexylmethyl)-2-(5-(4-fluoro-2-(4-isopropylpyrimidin-5-yl)phenoxy)pyrimidin-4-yl)-5-oxa-2-azaspiro[3.4]octan-7-amine]
6 | < 100 | 100 to 1000 | – | CC(C)C(=O)N(CCO)c1cc(F)ccc1Oc1cncnc1N1CCC2(CCN(Cc3ccc4[nH]c(=O)[nH]c4c3)C2)C1 (stereo not drawn) [Example 185, N-(5-fluoro-2-((4-(7-((2-oxo-2,3-dihydro-1H-benzo[d]imidazol-5-yl)methyl)-2,7-diazaspiro[4.4]nonan-2-yl)pyrimidin-5-yl)oxy)phenyl)-N-(2-hydroxyethyl)iso-butyramide]
7 | < 100 | < 100 | – | CCN(C(=O)C(C)C)c1cc(F)ccc1Oc1cncnc1N1CCC2(CCN(Cc3ccc4[nH]c(=O)[nH]c4c3)C2)C1 (stereo not drawn) [Example 186, N-ethyl-N-(5-fluoro-2-((4-(7-((2-oxo-2,3-dihydro-1H-benzo[d]imidazol-5-yl)methyl)-2,7-diazaspiro[4.4]nonan-2-yl)pyrimidin-5-yl)oxy)phenyl) isobutyramide]
8 | < 100 | < 100 | – | CC(C)C(=O)N(CC(F)(F)F)c1cc(F)ccc1Oc1cncnc1N1CCC2(CCN(Cc3ccc4[nH]c(=O)[nH]c4c3)C2)C1 (stereo not drawn) [Example 187, N-(5-fluoro-2-((4-(7-((2-oxo-2,3-dihydro-1H-benzo[d]imidazol-5-yl)methyl)-2,7-diazaspiro[4.4]nonan-2-yl)pyrimidin-5-yl)oxy)phenyl)-N-(2,2,2-trifluoroethyl)iso-butyramide]
9 | < 100 | 100 to 1000 | – | CC(=O)N[C@H]1CC[C@H](CN2CCC3(CCN(c4ncncc4Oc4ccc(F)cc4-c4ccc(C#N)cc4C4CC4)C3)C2)CC1 (stereo partly drawn) [Example 188, N-((1r,4r)-4-((7-(5-((4′-cyano-2′-cyclopropyl-5-fluoro-[1,1′-biphenyl]-2-yl)oxy)pyrimidin-4-yl)-2,7-diazaspiro[4.4]nonan-2-yl)methyl)cyclohexyl) acetamide]
10 | < 100 | 100 to 1000 | – | CC(C)(C)OC(=O)N[C@H]1CC[C@H](CCN2CC3(C2)CN(c2ncncc2Oc2ccc(F)cc2-c2ccc(C#N)cc2C2CC2)C3)CC1 [Example 189, tert-butyl ((1r,4r)-4-(2-(6-(5-((4′-cyano-2′-cyclopropyl-5-fluoro-[1,1′-biphenyl]-2-yl)oxy)pyrimidin-4-yl)-2,6-diazaspiro[3.3]heptan-2-yl)ethyl)cyclohexyl) carbamate]
11 | < 100 | < 100 | – | CC(C)c1scnc1-c1cc(F)ccc1Oc1cncnc1N1CCC2(CCN(Cc3ccc4[nH]c(=O)[nH]c4c3)C2)C1 (stereo not drawn) [Example 190, 5-((7-(5-(4-fluoro-2-(5-isopropylthiazol-4-yl)phenoxy)pyrimidin-4-yl)-2,7-diazaspiro[4.4]nonan-2-yl)methyl)-1,3-dihydro-2H-benzo[d]imidazol-2-one]
12 | < 100 | 100 to 1000 | – | CC(=O)N[C@H]1CC[C@@H](CN2CCC3(CCN(c4ncncc4Oc4ccc(F)cc4-c4ccc(C#N)cc4C4CC4)C3)C2)CC1 (stereo partly drawn) [Example 190A, N-((1s,4s)-4-((7-(5-((4′-cyano-2′-cyclopropyl-5-fluoro-[1,1′-biphenyl]-2-yl)oxy)pyrimidin-4-yl)-2,7-diazaspiro[4.4]nonan-2-yl)methyl)cyclohexyl) acetamide]
13 | < 100 | < 100 | – | CCn1c(=O)[nH]c2cc(CN3CCC4(CCN(c5ncncc5Oc5ccc(F)cc5-c5ccc(C#N)cc5C5CC5)C4)C3)ccc21 (stereo not drawn) [Example 191, 2-cyclopropyl-2′-((4-(7-((1-ethyl-2-oxo-2,3-dihydro-1H-benzo[d]imidazol-5-yl)methyl)-2,7-diazaspiro[4.4]nonan-2-yl)pyrimidin-5-yl)oxy)-5′-fluoro-[1,1′-biphenyl]-4-carbonitrile]
14 | < 100 | 100 to 1000 | – | N#Cc1ccc2c(CN3CCC4(CCN(c5ncncc5Oc5ccc(F)cc5OC5CCCC5)C4)C3)c[nH]c2c1 (stereo not drawn) [Example 192, 3-((7-(5-(2-(cyclopentyloxy)-4-fluorophenoxy)pyrimidin-4-yl)-2,7-diazaspiro[4.4]nonan-2-yl)methyl)-1H-indole-6-carbonitrile]
15 | < 100 | < 100 | – | CC1(C)C(=O)Nc2cc(CN3CCC4(CCN(c5ncncc5Oc5ccc(F)cc5OC5CCCC5)C4)C3)ccc21 (stereo not drawn) [Example 193, 6-((7-(5-(2-(cyclopentyloxy)-4-fluorophenoxy)pyrimidin-4-yl)-2,7-diazaspiro[4.4]nonan-2-yl)methyl)-3,3-dimethylindolin-2-one]
16 | < 100 | 100 to 1000 | – | CC(C)N(C)C(=O)c1cc(F)ccc1Oc1cncnc1N1CCC2(CCN(Cc3c[nH]c4cc(C#N)ccc34)C2)C1 (stereo not drawn) [Example 194, 2-((4-(7-((6-cyano-1H-indol-3-yl)methyl)-2,7-diazaspiro[4.4]nonan-2-yl)pyrimidin-5-yl)oxy)-5-fluoro-N-isopropyl-N-methylbenzamide]
17 | < 100 | 100 to 1000 | – | N#Cc1ccc(-c2cc(F)ccc2Oc2cncnc2N2CCC3(CCN(Cc4ccc(N5CCCC5=O)cc4)C3)C2)c(C2CC2)c1 (stereo not drawn) [Example 195, 2-cyclopropyl-5′-fluoro-2′-((4-(7-(4-(2-oxopyrrolidin-1-yl)benzyl)-2,7-diazaspiro [4.4]nonan-2-yl)pyrimidin-5-yl)oxy)-[1,1′-biphenyl]-4-carbonitrile]
18 | < 100 | < 100 | – | N#Cc1ccc(-c2cc(F)ccc2Oc2cncnc2N2CCC3(CCN(Cc4ccc5c(c4)NC(=O)C5)C3)C2)c(C2CC2)c1 (stereo not drawn) [Example 196, 2-cyclopropyl-5′-fluoro-2′-((4-(7-((2-oxoindolin-6-yl)methyl)-2,7-diazaspiro[4.4]nonan-2-yl)pyrimidin-5-yl)oxy)-[1,1′-biphenyl]-4-carbonitrile]
19 | < 100 | < 100 | – | CC(C)n1nccc1-c1cc(F)ccc1Oc1cncnc1N1CCC2(CCN(Cc3ccc4nn[nH]c4c3)C2)C1 (stereo not drawn) [Example 198, 6-((7-(5-(4-fluoro-2-(1-isopropyl-1H-pyrazol-5-yl)phenoxy)pyrimidin-4-yl)-2,7-diazaspiro[4.4]nonan-2-yl)methyl)-1H-benzo[d][1,2,3] triazole]
20 | < 100 | – | ≥ 1000 | N#Cc1ccc(-c2cc(F)cc(F)c2Oc2cncnc2N2CCC3(CCN(Cc4ccc5[nH]c(=O)[nH]c5c4)C3)C2)c(C2CC2)c1 (stereo not drawn) [Example 199, 2-cyclopropyl-3′,5′-difluoro-2′-((4-(7-((2-oxo-2,3-dihydro-1H-benzo[d]imidazol-5-yl)methyl)-2,7-diazaspiro[4.4]nonan-2-yl)pyrimidin-5-yl)oxy)-[1,1′-biphenyl]-4-carbonitrile]
21 | < 100 | 100 to 1000 | – | NC(=O)c1ccc2c(CN3CCC4(CCN(c5ncncc5Oc5ccc(F)cc5OCC5CC5)C4)C3)c[nH]c2c1 (stereo not drawn) [Example 200, 3-((7-(5-(2-(cyclopropylmethoxy)-4-fluorophenoxy)pyrimidin-4-yl)-2,7-diazaspiro[4.4]nonan-2-yl)methyl)-1H-indole-6-carboxamide]
